Source: US9359308B2, “Pyrazine kinase inhibitors” (Portola Pharmaceuticals, Inc., priority 2011, dated 2016)

Biological target: T1, full length active recombinant SYK enzyme (Homo sapiens, UniProt P43405)
T1 construct: full length active recombinant SYK enzyme (Millipore, Calif.); purchased Millipore
Test: Inhibition of Syk tyrosine phosphorylation activity (LANCE TR-FRET kinase assay)
Assay type: biochemical
Conditions: activity in the Syk assays, class symbols
Outline: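 IC50 was derived by non-linear regression of TR-FRET signal (Eu-W1024-PY100 donor, streptavidin-APC acceptor) read 1 h after EDTA quench. The kinase step ran 1 h at room temperature with 1 nM full-length SYK, 550 nM biotinylated DEEDYESP substrate and 100 μM ATP in Tris pH 7.5/MgCl2/DTT at 3% final DMSO.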

| Structure (SMILES) | IC50 |
| --- | --- |
| Cc1ccc(Nc2nc(N[C@H](CC(F)F)C(N)=O)cnc2C(N)=O)cc1C [Example 122, (R)-5-((1-amino-4,4-difluoro-1-oxobutan-2-yl)amino)-3-((3,4-dimethylphenyl)amino)pyrazine-2-carboxamide] | < 0.001 µM |
| CC(C)[C@@H](Nc1cnc(C(N)=O)c(Nc2ccc(-n3ccnc3)cc2)n1)C(N)=O [Example 149, (R)-3-(4-(1H-imidazol-1-yl)phenylamino)-5-(1-amino-3-methyl-1-oxobutan-2-ylamino)pyrazine-2-carboxamide] | 0.01 to 0.1 µM |
| CC[C@@H](Nc1cnc(C(N)=O)c(Nc2cccnc2)n1)C(N)=O [Example 181, (R)-5-(1-amino-1-oxobutan-2-ylamino)-3-(pyridin-3-ylamino)pyrazine-2-carboxamide] | 0.01 to 0.1 µM |
| CN(C)C(=O)c1ccc(F)c(Nc2nc(N[C@@H]3CCCC[C@@H]3N)cnc2C(N)=O)c1 [Example 288, 5-((1R,2S)-2-aminocyclohexylamino)-3-(5-(dimethylcarbamoyl)-2-fluorophenylamino)pyrazine-2-carboxamide] | 0.1 to 1 µM |
| Cc1cc(Nc2nc(N[C@@H]3CCCC(F)(F)[C@@H]3N)cnc2C(N)=O)sn1 [Example 23, 5-((1R,2R)-2-amino-3,3-difluorocyclohexylamino)-3-(3-methylisothiazol-5-ylamino)pyrazine-2-carboxamide] | 0.01 to 0.1 µM |
| NC(=O)c1ncc(N[C@@H]2CCCC[C@@H]2N)nc1Nc1ccc2[nH]ncc2c1 (racemic) [Example 54, cis-3-(1H-indazol-5-ylamino)-5-(2-aminocyclohexylamino)pyrazine-2-carboxamide] | < 0.001 µM |
| CC(C)[C@@H](Nc1cnc(C(N)=O)c(Nc2ccc3cnccc3c2)n1)C(N)=O [Example 189, (R)-5-(1-amino-3-methyl-1-oxobutan-2-ylamino)-3-(isoquinolin-6-ylamino)pyrazine-2-carboxamide] | 0.001 to 0.01 µM |
| CC(C)C[C@@H](Nc1cnc(C(N)=O)c(Nc2ccc(N3CCC3)nc2)n1)C(N)=O [Example 334, (R)-5-(1-amino-4-methyl-1-oxopentan-2-ylamino)-3-(6-(azetidin-1-yl)pyridin-3-ylamino)pyrazine-2-carboxamide] | 0.01 to 0.1 µM |
| Cc1cccc(Nc2nc(N[C@@H]3CCNC3)cnc2C(N)=O)c1 [Example 116, (R)-5-(pyrrolidin-3-ylamino)-3-(m-tolylamino)pyrazine-2-carboxamide] | 0.001 to 0.01 µM |
| NC(=O)c1ncc(N[C@@H](C(N)=O)C2CC2)nc1Nc1ccc2cnccc2c1 [Example 190, (R)-5-(2-amino-1-cyclopropyl-2-oxoethylamino)-3-(isoquinolin-6-ylamino)pyrazine-2-carboxamide] | 0.001 to 0.01 µM |
| COc1ccc(Nc2nc(N[C@@H](C(N)=O)C(C)C)cnc2C(N)=O)cn1 [Example 326, (R)-5-(1-amino-3-methyl-1-oxobutan-2-ylamino)-3-(6-methoxypyridin-3-ylamino)pyrazine-2-carboxamide] | 0.01 to 0.1 µM |
| COc1ccc(Nc2nc(N[C@@H]3CCCC(F)(F)[C@@H]3N)cnc2C(N)=O)cn1 [Example 330, 5-((1R,2R)-2-amino-3,3-difluorocyclohexylamino)-3-(6-methoxypyridin-3-ylamino)pyrazine-2-carboxamide] | 0.1 to 1 µM |
| CN1Cc2cc(Nc3nc(N[C@@H]4CCCC[C@@H]4N)cnc3C(N)=O)ccc2C1=O [Example 339, 5-((1R,2S)-2-aminocyclohexylamino)-3-(2-methyl-1-oxoisoindolin-5-ylamino)pyrazine-2-carboxamide] | < 0.001 µM |
| NC(=O)c1ccc(Nc2nc(N[C@@H]3CCCC(F)(F)[C@@H]3N)cnc2C(N)=O)cc1 [Example 19, 5-((1R,2R)-2-amino-3,3-difluorocyclohexylamino)-3-(4-carbamoylphenylamino)pyrazine-2-carboxamide] | 0.01 to 0.1 µM |
| NC(=O)c1ncc(N[C@@H]2CCCC(F)(F)[C@@H]2N)nc1Nc1ccc2c(c1)COC2 [Example 452, 5-(((1R,2R)-2-amino-3,3-difluorocyclohexyl)amino)-3-((1,3-dihydroisobenzofuran-5-yl)amino)pyrazine-2-carboxamide] | 0.001 to 0.01 µM |
| Cc1cc(Nc2nc(N[C@H](CC[S+](C)[O-])C(N)=O)cnc2C(N)=O)sn1 (stereo partly drawn) [Example 399, 5-((2R)-1-amino-4-(methylsulfinyl)-1-oxobutan-2-ylamino)-3-(3-methylisothiazol-5-ylamino)pyrazine-2-carboxamide] | 0.1 to 1 µM |
| Cc1cc(Nc2nc(N[C@@H](C(N)=O)C(C)(C)C)cnc2C(N)=O)sn1 [Example 214, (R)-5-(1-amino-3,3-dimethyl-1-oxobutan-2-ylamino)-3-(3-methylisothiazol-5-ylamino)pyrazine-2-carboxamide] | 0.01 to 0.1 µM |
| NC(=O)c1ncc(N[C@@H]2CCCC[C@@H]2N)nc1Nc1cc(F)c2ncccc2c1 [Example 205, 5-((1R,2S)-2-aminocyclohexylamino)-3-(8-fluoroquinolin-6-ylamino)pyrazine-2-carboxamide] | < 0.001 µM |

| Structure (SMILES) | IC50 |
| --- | --- |
| NC(=O)c1ncc(N[C@@H]2CCNC2)nc1Nc1ccc2ncccc2c1 [Example 56, (R)-5-(pyrrolidin-3-ylamino)-3-(quinolin-6-ylamino)pyrazine-2-carboxamide] | 0.001 to 0.01 µM |
| CC[C@@H](Nc1cnc(C(N)=O)c(Nc2cnc3cccnc3c2)n1)C(N)=O [Example 383, (R)-3-(1,5-naphthyridin-3-ylamino)-5-(1-amino-1-oxobutan-2-ylamino)pyrazine-2-carboxamide] | 0.01 to 0.1 µM |
| CC[C@@H](Nc1cnc(C(N)=O)c(Nc2ccc(C(=O)N3CC(F)(F)C3)nc2)n1)C(N)=O [Example 301, (R)-5-(1-amino-1-oxobutan-2-ylamino)-3-(6-(3,3-difluoroazetidine-1-carbonyl)pyridin-3-ylamino)pyrazine-2-carboxamide] | 0.01 to 0.1 µM |
| NC(=O)c1ncc(N[C@@H]2CCCC[C@@H]2N)nc1Nc1ccc(C(=O)N2CCC2)nc1 [Example 280, 5-((1R,2S)-2-aminocyclohexylamino)-3-(6-(azetidine-1-carbonyl)pyridin-3-ylamino)pyrazine-2-carboxamide] | 0.01 to 0.1 µM |
| COc1ncc(Nc2nc(N[C@@H]3CCCC[C@@H]3N)cnc2C(N)=O)cn1 [Example 305, 5-((1R,2S)-2-aminocyclohexylamino)-3-(2-methoxypyrimidin-5-ylamino)pyrazine-2-carboxamide] | 0.01 to 0.1 µM |
| CC(C)C[C@@H](Nc1cnc(C(N)=O)c(Nc2cccc3c2ccn3C)n1)C(N)=O [Example 3, (R)-5-(1-amino-4-methyl-1-oxopentan-2-ylamino)-3-(1-methyl-1H-indol-4-ylamino)pyrazine-2-carboxamide] | 0.001 to 0.01 µM |
| NC(=O)c1ncc(N[C@@H]2CCCC[C@@H]2N)nc1Nc1cc(C(=O)N2CCCC2)ccc1F [Example 289, 5-((1R,2S)-2-aminocyclohexylamino)-3-(2-fluoro-5-(pyrrolidine-1-carbonyl)phenylamino)pyrazine-2-carboxamide] | 0.01 to 0.1 µM |
| NC(=O)c1ncc(N[C@@H]2CCCC[C@@H]2N)nc1Nc1cnc2ncccc2c1 [Example 420, 3-((1,8-naphthyridin-3-yl)amino)-5-(((1R,2S)-2-aminocyclohexyl)amino)pyrazine-2-carboxamide] | 0.001 to 0.01 µM |
| NC(=O)c1ncc(N[C@@H]2CCCC[C@@H]2N)nc1N[C@@H]1COc2ccccc2C1 [Example 416, 5-(((1R,2S)-2-aminocyclohexyl)amino)-3-((S)-chroman-3-ylamino)pyrazine-2-carboxamide] | 0.1 to 1 µM |
| CC(C)C[C@@H](Nc1cnc(C(N)=O)c(Nc2ccc(-n3cccn3)cc2)n1)C(N)=O [Example 71] | 0.01 to 0.1 µM |
| NC(=O)c1ncc(N[C@@H]2CCCC[C@@H]2N)nc1Nc1cnc2cccnc2c1 [Example 419, 3-((1,5-naphthyridin-3-yl)amino)-5-(((1R,2S)-2-aminocyclohexyl)amino)pyrazine-2-carboxamide] | 0.001 to 0.01 µM |
| Cn1ccc2c(Nc3nc(N[C@H](CC4CC4)C(N)=O)cnc3C(N)=O)cccc21 [Example 397, (R)-5-(1-amino-3-cyclopropyl-1-oxopropan-2-ylamino)-3-(1-methyl-1H-indol-4-ylamino)pyrazine-2-carboxamide] | 0.001 to 0.01 µM |
| CS(=O)(=O)c1ccc(Nc2nc(N[C@@H]3CCCC[C@@H]3N)cnc2C(N)=O)cc1 [Example 153, 5-((1R,2S)-2-aminocyclohexylamino)-3-(4-(methylsulfonyl)phenylamino)pyrazine-2-carboxamide] | 0.001 to 0.01 µM |
| NC(=O)c1ncc(N[C@@H]2CCCC[C@@H]2N)nc1Nc1ccc(N2CCCCC2=O)cc1 [Example 441, 5-(((1R,2S)-2-aminocyclohexyl)amino)-3-((4-(2-oxopiperidin-1-yl)phenyl)amino)pyrazine-2-carboxamide] | 0.01 to 0.1 µM |
| NC(=O)c1ncc(N[C@H](Cc2ccccc2)C(N)=O)nc1Nc1ccc2ncccc2c1 [Example 31, (R)-5-(1-amino-1-oxo-3-phenylpropan-2-ylamino)-3-(quinolin-6-ylamino)pyrazine-2-carboxamide] | 0.001 to 0.01 µM |
| NC(=O)c1ncc(N[C@H]2CC[C@@H](N)CC2)nc1Nc1ccc2ncccc2c1 [Example 187, 5-((1s,4s)-4-aminocyclohexylamino)-3-(quinolin-6-ylamino)pyrazine-2-carboxamide] | 0.001 to 0.01 µM |
| NC(=O)c1ncc(N[C@@H]2CCCC(F)(F)[C@@H]2N)nc1Nc1cncc2ccccc12 [Example 363, 5-((1R,2R)-2-amino-3,3-difluorocyclohexylamino)-3-(isoquinolin-4-ylamino)pyrazine-2-carboxamide] | 0.01 to 0.1 µM |
| CCc1cc(Nc2nc(N[C@H](CC3CC3)C(N)=O)cnc2C(N)=O)sn1 [Example 225, (R)-5-(1-amino-3-cyclopropyl-1-oxopropan-2-ylamino)-3-(3-ethylisothiazol-5-ylamino)pyrazine-2-carboxamide] | 0.001 to 0.01 µM |
